Where “and” joins values, the source holds several entries; their conditions need not be identical. Equal values may be shown once.
Assays:
[1] = (§1) Functional CPE-based assay to measure dose dependent changes in cell viability from drug treatment in Huh-7 cells. Cells are treated with antiviral candidates that have been serially diluted. Cytotoxicity is reported via analysis of MTT/ MTS assays in uninfected cells. The assay has been performed by National Institute of Allergy and Infectious Diseases.; type: toxicity; settings: human
[2] = (§2) Functional metabolic assay to measure dose dependent changes in cell viability from drug treatment in Vero E6/TMPRSS2 cells. Cells are treated with antiviral candidates that have been serially diluted. Cytotoxicity is reported via measuring absorbance and analysis of MTT/MTS assays in uninfected cells. The assay has been performed by Icahn School of Medicine at Mount Sinai.; type: toxicity, cell-based, VeroE6/TMPRSS2; settings: chlorocebus sabaeus; for CC50: Vero E6/TMPRSS2 cells; for CC10: veroe6/tmprss2
[3] = Functional assay to measure dose dependent changes in cell viability from drug treatment in Vero E6 miRFP670 cells (cotreated with P-gp inhibitor, CP100356) that are infected with Dengue virus type 2 New Guinea C. […] Cytotoxicity is reported via via analysis of DAPI count using high-content imager. The assay has been performed by KU Leuven.; type: toxicity, cell-based, Vero C1008; settings: chlorocebus sabaeus
[4] = as §2, with “cells (cotreated” for “cells. Cells are treated”, “P-gp inhibitor, Elacridar). […]” for “antiviral candidates that have been serially diluted.”; type: toxicity, cell-based, VeroE6/TMPRSS2; settings: chlorocebus sabaeus, p-gp concentration 2 uM
[5] = as §1, with “Vero E6 miRFP670” for “Huh-7”, “of” for “of MTT/”, “KU Leuven.” for “National Institute of Allergy and Infectious Diseases.”; type: toxicity, Vero C1008; settings: chlorocebus sabaeus
[6] = as §1, with “Vero E6 miRFP670 cells (cotreated with P-gp inhibitor, CP100356).” for “Huh-7 cells.”, “of” for “of MTT/”, “KU Leuven.” for “National Institute of Allergy and Infectious Diseases.”; type: toxicity, Vero C1008; settings: chlorocebus sabaeus, Vero E6 miRFP670 cells, with CP100356 (P-gp inhibitor, concentration not stated)
[7] = Functional assay to measure dose dependent changes in cell viability from drug treatment in Vero E6 miRFP670 cells that are infected with Dengue virus type 2 New Guinea C. Cells are treated with antiviral candidates that have been serially diluted. Cytotoxicity is reported via via analysis of DAPI count using high-content imager. The assay has been performed by KU Leuven.; type: toxicity, cell-based, Vero C1008; settings: chlorocebus sabaeus
[8] = as §2, with “HeLa” for “Vero E6/TMPRSS2”, “via” for “via measuring absorbance and”, “KU Leuven.” for “Icahn School of Medicine at Mount Sinai.”; type: toxicity, cell-based; settings: human
[9] = with CP100356 (P-gp inhibitor, concentration not stated), p-gp concentration 500 nM
[10] = Vero E6/TMPRSS2 cells, with Elacridar (P-gp inhibitor, concentration not stated)
[11] = vero c1008, p-gp concentration 500 nM

SMILES: NCc1ccc(-c2ncc(OCC3CCNCC3)nc2-c2ccc(-c3ccoc3)cc2)cc1
- CC50 [1]: 5.5 µM
- CC50 [2]: > 50 µM
- CC10 [2]: > 50 µM
- CC50 [3, 9]: 1.7 µM
- CC50 [4, 10]: 49.9 µM
- CC10 ([4]; veroe6/tmprss2): 39.762 µM

SMILES: CCCC[C@H](NC(C)=O)C(=O)N[C@H](C(=O)NCc1ccc(C(N)=O)cc1)c1ccc(OCc2ccccc2)cc1
- CC50 [1]: 15 µM
- CC50 [3, 9]: > 10 µM
- CC50 [4, 10]: > 50 µM
- CC10 ([4]; veroe6/tmprss2): > 50 µM

SMILES: NCc1ccc(-c2ncc(OCC3CCNCC3)nc2-c2ccc(C3CCOCC3)cc2)cc1
- CC50 [1]: 32 µM
- CC50 [3, 9]: > 10 µM

SMILES: CCCCCC(=O)N[C@H](C(=O)N1CCCCC1)c1ccc(OCc2ccccc2)cc1
- CC50 [1]: 19 µM
- CC50 [3, 9]: > 10 µM

SMILES: O=C(Nc1ccc2c(c1)B(O)OC2)c1cccc(OCc2c(Cl)cccc2Cl)c1
- CC50 [1]: 1.9 µM
- CC50 [2]: > 50 µM
- CC10 [2]: > 50 µM
- CC50 [3, 9]: > 10 µM

SMILES: CC1(C)Cc2sc(NC(=O)Cc3ccc(S(N)(=O)=O)cc3)c(C#N)c2CN1CC1CCCCC1
- CC50 ([5]; Vero E6 miRFP670 cells): > 50 µM
- CC50 [1]: 16 µM

SMILES: O=C(Nc1ccc2c(c1)CNC2)c1cc(Cl)cc2[nH]ncc12
- CC50 ([6]; p-gp concentration 100 nM): > 50 µM
- CC50 ([5]; Vero E6 miRFP670 cells): 49.7 µM
- CC50 ([5]; vero c1008): > 50 µM
- CC50 [7]: 6.72 µM
- CC50 ([3]; vero c1008, p-gp concentration 100 nM): 5.47 µM
- CC50 [4, 10]: < 0.023 µM
- CC10 ([4]; veroe6/tmprss2): > 50 µM

SMILES: NCc1cccc(NC(=O)C[C@@H](NC(=O)OCc2ccccc2)c2ccc(OCc3ccccc3)cc2)c1
- CC50 [1]: 6.1 µM
- CC50 [3, 9]: > 10 µM

SMILES: O=C(O)c1cc(Oc2ccc(F)cc2)c(F)cc1NS(=O)(=O)c1ccc(Oc2ccccc2Cl)cc1
- CC50 [1]: 20 µM
- CC50 [3, 9]: 5.31 µM
- CC50 [4, 10]: > 50 µM
- CC50 ([4]; veroe6/tmprss2): 44 µM

SMILES: c1ccc2sc(C3CCN(Cc4c[nH]c5ccccc45)CC3)nc2c1
- CC50 [1]: 18 µM
- CC50 [3, 9]: 5.31 µM
- CC50 [4, 10]: 49.2 µM
- CC50 ([4]; veroe6/tmprss2): > 50 µM

SMILES: CC(C)CNC(=O)c1cc(Cl)c(F)cc1NS(=O)(=O)c1ccc(Oc2ccccc2Cl)cc1
- CC50 ([5]; Vero E6 miRFP670 cells): 4.96 µM
- CC50 ([5]; vero c1008): 5.79 µM and 3.21 µM
- CC50 [1]: 3.1 µM
- CC50 [2]: > 50 µM
- CC10 [2]: > 50 µM
- CC50 [3, 11]: 5.35 µM
- CC50 [3, 9]: > 10 µM
- CC50 [4, 10]: 49.4 µM
- CC50 ([4]; veroe6/tmprss2): 38.1 µM

SMILES: CC(C)CNC(=O)c1cc(Cl)ccc1NS(=O)(=O)c1ccc(Oc2ccccc2Cl)cc1
- CC50 ([5]; Vero E6 miRFP670 cells): 4.76 µM
- CC50 [1]: 6.5 µM
- CC50 [2]: > 50 µM
- CC10 [2]: > 50 µM
- CC50 [3, 9]: > 10 µM
- CC50 ([4]; veroe6/tmprss2): > 50 µM

SMILES: O=C(Nc1ccc2c(c1)CNC2)c1ccnc2[nH]ccc12
- CC50 ([8]; HeLa cells): > 50 µM
- CC10 ([8]; hela): > 50 µM

SMILES: c1cc(C2CCN(Cc3c[nH]c4ccccc34)CC2)c2ccncc2c1
- CC50 [1]: 32 µM
- CC50 [2]: > 50 µM
- CC10 [2]: > 50 µM
- CC50 [3, 11]: > 50 µM
- CC50 [4, 10]: > 50 µM
- CC10 ([4]; veroe6/tmprss2): > 50 µM

SMILES: O=C(NCC(F)(F)F)c1cc(Cl)c(F)cc1NS(=O)(=O)c1ccc(Oc2ccccc2Cl)cc1
- CC50 ([5]; Vero E6 miRFP670 cells): 3.98 µM
- CC50 [1]: 1.9 µM
- CC50 [3, 11]: 5.65 µM
- CC50 [3, 9]: > 10 µM

SMILES: COc1cc(N[C@@H](C(=O)N2CCc3ccc(OC(F)(F)F)cc32)c2ccc(Cl)cc2)cc(OCCCC(=O)O)c1
- CC50 ([6]; p-gp concentration 500 nM): 11.1 µM
- CC50 ([5]; vero c1008): > 50 µM and 19.7 µM and 11.3 µM
- CC50 [1]: 19 µM
- CC10 ([4]; veroe6/tmprss2): > 10 µM and 7.237 µM
- CC50 ([4]; veroe6/tmprss2): > 10 µM and 37.7 µM

SMILES: COc1cc(N[C@@H](C(=O)c2c[nH]c3ccc(OC(F)(F)F)cc23)c2ccc(Cl)cc2OC)cc(S(C)(=O)=O)c1
- CC50 ([6]; p-gp concentration 500 nM): 1.49 µM
- CC50 [1]: 5 µM
- CC50 [2]: > 10 µM
- CC10 [2]: > 10 µM
- CC50 [4, 10]: > 10 µM

Reference: ChEMBL document CHEMBL5661955, “ASAP - In vitro cytotoxicity” (2024)
